Consider 30 molecules from US9149465B2, “Isoxazolines as inhibitors of fatty acid amide hydrolase” (Infinity Pharmaceuticals, Inc., priority 2009, dated 2015).

The structures appear in SMILES notation. Bounds are passed on as bounds.

As a reminder, the Ki is the dissociation constant of the complex between target and ligand, obtained from inhibition or displacement.

In the assay the target is T1, human FAAH (Homo sapiens, UniProt O00519).
T1 construct: host or cells: COS-7 cells, transient transfection; 13,000 g membrane fraction solubilised in 1% Triton X-100
T1 sequence (O00519 1-579): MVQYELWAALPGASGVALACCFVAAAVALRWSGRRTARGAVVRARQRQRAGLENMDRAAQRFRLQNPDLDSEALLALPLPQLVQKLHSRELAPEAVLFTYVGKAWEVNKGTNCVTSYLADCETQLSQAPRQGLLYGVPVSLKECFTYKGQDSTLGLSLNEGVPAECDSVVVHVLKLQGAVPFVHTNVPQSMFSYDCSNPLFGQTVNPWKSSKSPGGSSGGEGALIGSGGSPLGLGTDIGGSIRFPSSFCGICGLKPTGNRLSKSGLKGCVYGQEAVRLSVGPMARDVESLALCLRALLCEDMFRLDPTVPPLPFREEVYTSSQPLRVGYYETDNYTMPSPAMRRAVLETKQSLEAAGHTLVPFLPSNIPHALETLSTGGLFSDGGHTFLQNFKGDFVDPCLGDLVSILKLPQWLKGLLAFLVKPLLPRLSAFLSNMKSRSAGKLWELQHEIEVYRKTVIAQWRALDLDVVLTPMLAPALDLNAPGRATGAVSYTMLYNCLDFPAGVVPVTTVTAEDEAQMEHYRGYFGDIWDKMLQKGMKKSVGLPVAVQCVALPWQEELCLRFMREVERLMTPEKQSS
In words: Inhibition of human FAAH (AMC arachidonoyl amide fluorescence assay). In kind it is biochemical. The note with it: inhibitor preincubated 30 minutes at room temperature; 20 μM AMC arachidonoyl amide; 4 hours; read-out: Activity (Ki, inhibitors of human FAAH). As for the experimental part:
Human FAAH Preparation: COS-7 cells were split the day before, 1:5 into 150 mm x […] cell culture dishes (Corning Inc., Cat. No. 430599). Transient transfection took place at 30-40% confluency according to FuGENE 6 Transfection Reagent (Roche, Cat. No. 11814 443 001).
Transfection Procedure: The FuGENE transfection 6 reagent (45 uL) was added to 1410 μL of media (DMEM, serum free without pen/strep) in a 15 mL conical tube and incubated at room temp for 5 minutes, followed by the addition of FAAH plasmid DNA (15 μg) (OriGene Cat. No. TC119221, Genbank Accession No. NM_001441.1, 0.67 ug/uL) and a further incubation of 15 minutes at room temperature. The resulting solution was added into one dish of 30-40% confluent COS-7 cells in a drop-wise manner. The COS-7 cell dish was subsequently incubated for 48 hours. The cells are then harvested.
Harvest procedure: Media was aspirated from the dishes and the cells rinsed with 10 mL PBS. The PBS was removed and 3 mL of PBS added to the dish. The dish was scraped to resuspend the cells, and the subsequent cell suspension collected into a 15 mL conical tube. The cells were pelleted by centrifugation at 1200 rpm for 5 minutes in a bench top centrifuge. PBS was removed and the cell pellet snap frozen in liquid nitrogen and stored at −80° C.
COS-7 cells —FAAH purification: • (1) Fractionation: Frozen cell pellets from transient transfections were thawed on ice and resuspended in 12.5 mM Hepes pH 8.0, 100 mM NaCl, 1 mM EDTA (10 mL/0.2 g cell pellet). The pellets were dounce homogenized and then sonicated to produce cell extract. The cell extract was subsequently centrifuged at 1000 g to remove cellular debris. The pellet was discarded and the supernatant centrifuged at 13,000 g for 20 minutes. The pellet contained membrane bound FAAH. The supernatant was discarded and the pellet resolubilized. • (2) Re-solubilization: The fraction of interest, (13,000 g, membrane fraction) was re-suspended in 2.3 mL re-suspension buffer (20 mM Hepes pH 7.8, 10% v/v Glycerol, 1 mM EDTA, 1% Triton X-100) and the sample incubated on ice for 1 hour and then centrifuged to remove any particulate matter. The supernatant containing solubilized human FAAH was aliquoted and snap frozen in liquid nitrogen and stored at −80° C. until use. • (3) Characterization: Protein Concentration determined by Bradford assay. • SDS gel and Western blot to confirm presence of FAAH • FAAH activity assay • Km determination-96-well assay • Linear dependence—96-well assay • Standard compound Ki determination—384-well assay
Human FAAH assay; Experimental Protocol: A 0.1 mg/mL Human FAAH solution was made up in FAAH reaction buffer, and 24 ul pipeted into a 384 well plate. To this was added 1 μL of a 3 fold serially diluted inhibitor from a DMSO stock solution. The FAAH solution and inhibitor were incubated for 30 minutes at room temperature. The FAAH reaction was initiated by the addition of 25 μL of 40 μM AMC Arachidonoyl Amide in FAAH reaction buffer, yielding a final reaction human FAAH preparation concentration of 0.05 mg/ml and AMC-Arachidonoyl substrate concentration of 20 μM, reaction volume 50 μL. The reaction was allowed to proceed for 4 hours at room temperature. The reaction was stopped by the addition of 25 μL 12 μM a-ketoheterocycle (Cayman Chemicals, catalogue #10435). The microtiter plate was read in the envision plate reader.
The raw fluorescence was plotted on the y axis and the inhibitor concentration on the x axis to give a dose response inhibition curve. The data was fitted to a single site competitive inhibition equation, fixing the Km for the human enzyme to 12 μM and 9 μM respectively.
As for `CS(=O)(=O)c1ccc(OC2=NO[C@@H](c3ccc(Br)cc3)C2)cn1` (racemic) [I-237], the Ki was no more than 100 nM.

On to `c1ccc(Oc2ccc(C3CC(Oc4ccncc4)=NO3)cc2)cc1` (single isomer, unassigned) [I-36], for which the Ki was no less than 1000 nM.

With `O=C(O)c1ccc(OC2=NOC(c3ccc(C(F)(F)F)cc3)C2)cn1` (racemic) [I-170], the Ki is no more than 100 nM.

Consider `COc1ccccc1C1CC(Br)=NO1` (single isomer, unassigned) [I-8], for which the Ki was no less than 1000 nM.

For `Cc1nnc(-c2ccc(OC3=NOC(C)(c4ccc(OC(F)(F)F)cc4)C3)cn2)o1` (racemic) [I-156], the inhibition constant (Ki) was no more than 100 nM.

As to `CSc1ccc(OC2=NOC(C)(c3ccc(OC(F)(F)F)cc3)C2)cn1` (racemic) [I-261], the inhibition constant Ki is no more than 100 nM.

As for `CC(C)CS(=O)(=O)c1ccc(OC2=NOC(c3ccc(OC(F)(F)F)cc3)C2)cn1` (racemic) [I-184], the inhibition constant Ki was 100 to 1000 nM.

Turning to `Cn1nc(C(F)(F)F)cc1OC1=NOC(c2ccc(Oc3ccccc3)cc2)C1` (racemic) [I-257], the inhibitory constant (Ki) lay within 100 to 1000 nM.

On to `c1ccc(C2CC(Oc3cncnc3)=NO2)cc1` (racemic) [I-166], for which the Ki fell in the range of 100 to 1000 nM.

Consider `CC1(c2ccc(OC(F)(F)F)cc2)CC(Oc2ccc(S(C)(=O)=O)nc2)=NO1` (racemic) [I-167], for which the Ki is no more than 100 nM.

Regarding `CCN(C1=NOC(c2ccc(OC(F)(F)F)cc2)C1)c1ccccc1` (racemic) [I-253], the Ki is no less than 1000 nM.

Regarding `c1ccc(Oc2ccc(C3CC(Oc4cccnc4)=NO3)cc2)cc1` (single isomer, unassigned) [I-37], the Ki was no more than 100 nM.

With `COc1ccc([C@H]2CC(Br)=NO2)cc1` (racemic) [I-6], the Ki was no more than 100 nM.

Turning to `CCS(=O)(=O)c1ccc(OC2=NOC(c3ccc(OC(F)(F)F)cc3)C2)cn1` (racemic) [I-182], the inhibition constant (Ki) is no more than 100 nM.

Regarding `ClC1=NOC(c2ccc(Oc3ccccc3)cc2)C1` (single isomer, unassigned) [I-17], the inhibitory constant (Ki) is no more than 100 nM.

Turning to `CNS(=O)(=O)c1ccc([C@H]2CC(Br)=NO2)cc1` (racemic) [I-207], the inhibition constant (Ki) was no more than 100 nM.

Regarding `C[C@]1(c2ccc(-c3ccccc3)cc2)CC(Br)=NO1` (racemic) [I-102], the inhibition constant (Ki) is no more than 100 nM.

As for `N[S@SP3](=O)(=O)c1cccc(OC2=NOC(c3ccc(Oc4ccccc4)cc3)C2)c1` (racemic) [I-63], the Ki was no less than 1000 nM.

For `O=S(=O)(c1ccc([C@H]2CC(Br)=NO2)cc1)N1CCOCC1` (racemic) [I-205], the inhibition constant Ki was no more than 100 nM.

In the case of `CSc1ccc(OC2=NOC(c3ccc(OC(F)(F)F)cc3)C2)cn1` (racemic) [I-134], the Ki was no more than 100 nM.

Regarding `CCCCOc1ccc([C@H]2CC(Oc3ccc(C(=O)O)nc3)=NO2)cc1` (racemic) [I-138], the Ki is no more than 100 nM.

On to `FC(F)(F)Oc1ccc(C2CC(Oc3cccc(-n4cnnc4)c3)=NO2)cc1` (racemic) [I-221], for which the Ki was no less than 1000 nM.

In the case of `Cc1nnc(-c2ccc(OC3=NOC(c4ccc(C(F)(F)F)cc4)C3)cn2)o1` (racemic) [I-259], the inhibition constant Ki is no more than 100 nM.

For `BrC1=NOC(c2cccc(Oc3ccccc3)c2)C1` (single isomer, unassigned) [I-11], the inhibition constant (Ki) is no more than 100 nM.

As for `CCCCOc1ccc([C@H]2CC(Oc3ccc(C(=O)OC)nc3)=NO2)cc1` (racemic) [I-137], the Ki was no more than 100 nM.

For the molecule `BrC1=NOC(CCCOc2ccccc2)C1` (single isomer, unassigned) [I-51], the Ki was no more than 100 nM.

For the molecule `Cn1ccc2cc(OC3=NOC(c4ccc(Oc5ccccc5)cc4)C3)cnc21` (single isomer, unassigned) [I-44], the Ki lay in the range of 100 to 1000 nM.

As for `OCCNC1=NOC(c2ccc(Oc3ccccc3)cc2)C1` (racemic) [I-243], the Ki fell in the range of 100 to 1000 nM.

Take `FC(F)(F)Oc1ccc(C2CC(Oc3ccc(-c4cnoc4)nc3)=NO2)cc1` (racemic) [I-194]: the inhibition constant Ki was no more than 100 nM.

On to `Cc1nnc(-c2cc(F)cc(OC3=NOC(c4ccc(OC(F)(F)F)cc4)C3)c2)o1` (racemic) [I-224], for which the Ki is no more than 100 nM.
